Structures are written as SMILES. pIC50: −log10 of the molar value.

What is called logP is the decadic logarithm of the partition coefficient of the neutral form, usually between octanol and water. The low end stands for a more hydrophilic compound, the high end for a more lipophilic compound. Broadly, the pIC50 is −log10 of the IC50, conventionally taken in molar units.

T1 sequence (P00381 whole entry): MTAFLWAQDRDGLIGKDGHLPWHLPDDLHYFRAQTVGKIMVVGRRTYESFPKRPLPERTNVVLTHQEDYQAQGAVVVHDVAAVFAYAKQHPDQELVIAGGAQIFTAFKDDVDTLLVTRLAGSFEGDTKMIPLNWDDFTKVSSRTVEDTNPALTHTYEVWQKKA

Tested on in one data set: not listed separately
The data set is described as follows: Partition coefficient (logP). The data set is classed as physicochemical. The note with it: octanol/water.
Turning to `COc1cc(CN(C)c2cnc3nc(N)nc(N)c3c2)cc(OC)c1`, the lipophilicity (logP) worked out at 1.87.

Compound `COc1cc(CNc2cnc3nc(N)nc(N)c3c2)cc(OC)c1OC` had a logP of 0.89.

Take `COc1ccc(OC)c(CNc2cnc3nc(N)nc(N)c3c2)c1`: the logP is 1.32.

Take `COc1ccc(OC)c(CN(C)c2cnc3nc(N)nc(N)c3c2)c1`: the logP is 1.87.

A further data set addresses T1, Dihydrofolate reductase (Lactobacillus casei, UniProt P00381). The data set is described as follows: Inhibitory activity against Dihydrofolate reductase from Lactobacillus casei ( lcDHFR). The arrangement: species or system Lacticaseibacillus casei.
Settings: not given
With `COc1cc(CN(C)c2ccc3nc(N)nc(N)c3c2)cc(OC)c1`, the negative-log IC50 (pIC50) was 7.43.

In the case of `COc1ccc(OC)c(CN(C)c2ccc3nc(N)nc(N)c3c2)c1`, the pIC50 was 6.89.

The target in another data set is T2, Bifunctional dihydrofolate reductase-thymidylate synthase (Toxoplasma gondii, UniProt Q07422).
T2 sequence (Q07422 whole entry): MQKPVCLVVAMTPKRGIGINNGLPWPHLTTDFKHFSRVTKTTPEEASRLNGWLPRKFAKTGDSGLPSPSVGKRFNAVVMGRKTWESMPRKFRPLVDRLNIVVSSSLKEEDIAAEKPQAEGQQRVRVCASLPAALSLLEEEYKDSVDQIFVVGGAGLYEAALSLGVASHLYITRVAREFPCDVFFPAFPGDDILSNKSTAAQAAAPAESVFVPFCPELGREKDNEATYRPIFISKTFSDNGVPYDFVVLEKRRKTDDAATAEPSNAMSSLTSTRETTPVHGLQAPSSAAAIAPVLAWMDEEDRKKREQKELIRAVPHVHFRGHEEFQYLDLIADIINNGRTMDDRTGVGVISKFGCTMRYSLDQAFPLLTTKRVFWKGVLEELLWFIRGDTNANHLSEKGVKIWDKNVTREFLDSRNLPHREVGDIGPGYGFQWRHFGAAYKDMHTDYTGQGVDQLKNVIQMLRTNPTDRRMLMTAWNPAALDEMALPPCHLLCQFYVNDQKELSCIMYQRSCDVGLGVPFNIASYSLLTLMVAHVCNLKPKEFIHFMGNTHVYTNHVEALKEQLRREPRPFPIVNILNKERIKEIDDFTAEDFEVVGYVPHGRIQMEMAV
Description: Inhibition of recombinant Dihydrofolate reductase from Toxoplasma gondii (tgDHFR).
Settings: not given
Turning to `COc1ccc(CN(C)c2ccc3nc(N)nc(N)c3c2)c(OC)c1OC`, the pIC50 was 8.27.

On to `COc1ccc(OC)c(CNc2ccc3nc(N)nc(N)c3c2)c1`, for which the pIC50 was 5.96.

As to `COc1cc(OC)c(OC)cc1CNc1ccc2nc(N)nc(N)c2c1`, the pIC50 was 6.27.

For the compound `COc1ccc(CNc2ccc3nc(N)nc(N)c3c2)c(OC)c1`, the negative logarithm of the IC50 (pIC50) is 6.11.

On to `COc1cc(CNc2ccc3nc(N)nc(N)c3c2)cc(OC)c1OC`, for which the pIC50 was 6.04.

With `COc1cc(CN(C)c2ccc3nc(N)nc(N)c3c2)cc(OC)c1`, the pIC50 was 8.33.

On to `COc1ccc(OC)c(CN(C)c2ccc3nc(N)nc(N)c3c2)c1`, for which the negative logarithm of the IC50 (pIC50) was 8.41.

Take `COc1ccc(CN(C)c2ccc3nc(N)nc(N)c3c2)c(OC)c1`: the pIC50 was 8.41.

Regarding `COc1cc(CNc2ccc3nc(N)nc(N)c3c2)cc(OC)c1`, the negative logarithm of the IC50 (pIC50) was 6.08.

In the case of `COc1ccc(CNc2ccc3nc(N)nc(N)c3c2)c(OC)c1OC`, the pIC50 is 6.09.

Another data set has as its target T2, Bifunctional dihydrofolate reductase-thymidylate synthase. Description: Inhibitory activity against recombinant Dihydrofolate reductase from Toxoplasma gondii (tgDHFR).
Settings: not given
With `Nc1nc(N)c2cc(NCc3ccccc3)ccc2n1`, the negative logarithm of the IC50 (pIC50) was 5.85.

The target in another data set is T3, Dihydrofolate reductase (Rattus norvegicus, UniProt Q920D2).
T3 sequence (Q920D2 whole entry): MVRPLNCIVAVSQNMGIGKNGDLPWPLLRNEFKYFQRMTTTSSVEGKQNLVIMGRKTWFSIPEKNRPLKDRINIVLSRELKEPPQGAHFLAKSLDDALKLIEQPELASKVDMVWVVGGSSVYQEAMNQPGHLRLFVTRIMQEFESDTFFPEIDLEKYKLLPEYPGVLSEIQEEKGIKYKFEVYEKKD
The data set is described as follows: Inhibitory activity against Dihydrofolate reductase from rat liver (rlDHFR).
Settings: not given
Turning to `COc1ccc(CN(C)c2ccc3nc(N)nc(N)c3c2)c(OC)c1OC`, the negative-log IC50 (pIC50) was 7.72.

The compound `Nc1nc(N)c2cc(NCc3ccccc3)ccc2n1` gave a pIC50 of 6.18.

`COc1ccc(OC)c(CNc2ccc3nc(N)nc(N)c3c2)c1` showed a pIC50 of 5.96.

Regarding `COc1cc(OC)c(CNc2ccc3nc(N)nc(N)c3c2)c(OC)c1`, the pIC50 is 4.64.

Take `COc1cc(OC)c(OC)cc1CNc1ccc2nc(N)nc(N)c2c1`: the pIC50 is 5.80.

Turning to `COc1ccc(CNc2ccc3nc(N)nc(N)c3c2)c(OC)c1`, the pIC50 is 5.92.

As to `COc1cc(CNc2ccc3nc(N)nc(N)c3c2)cc(OC)c1OC`, the pIC50 is 6.05.

The compound `COc1cc(CN(C)c2ccc3nc(N)nc(N)c3c2)cc(OC)c1` showed a negative-log IC50 (pIC50) of 8.09.

With `COc1ccc(CN(C)c2ccc3nc(N)nc(N)c3c2)c(OC)c1`, the pIC50 was 7.37.

Take `COc1cc(CNc2ccc3nc(N)nc(N)c3c2)cc(OC)c1`: the negative-log IC50 (pIC50) was 6.08.

In turn, `CN(Cc1cccc2c1CCCC2)c1ccc2nc(N)nc(N)c2c1` showed a negative-log IC50 (pIC50) of 7.77.

`COc1ccc(CNc2ccc3nc(N)nc(N)c3c2)c(OC)c1OC`: the negative-log IC50 (pIC50) is 5.89.

The target in a further data set is T4, Dihydrofolate reductase (Pneumocystis carinii, UniProt P16184).
T4 sequence (P16184 whole entry): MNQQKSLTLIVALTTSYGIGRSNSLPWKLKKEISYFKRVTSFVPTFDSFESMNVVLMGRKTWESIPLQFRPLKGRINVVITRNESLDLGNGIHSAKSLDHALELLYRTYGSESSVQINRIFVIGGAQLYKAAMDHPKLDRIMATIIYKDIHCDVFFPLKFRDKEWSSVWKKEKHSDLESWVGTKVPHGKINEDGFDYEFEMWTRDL
Settings: not given
The compound `COc1ccc(CN(C)c2ccc3nc(N)nc(N)c3c2)c(OC)c1OC` showed a negative-log IC50 (pIC50) of 7.28.

In the case of `Nc1nc(N)c2cc(NCc3ccccc3)ccc2n1`, the negative logarithm of the IC50 (pIC50) was 5.06.

For the compound `COc1ccc(OC)c(CNc2ccc3nc(N)nc(N)c3c2)c1`, the pIC50 was 5.34.

`COc1cc(OC)c(CNc2ccc3nc(N)nc(N)c3c2)c(OC)c1` gave a negative logarithm of the IC50 (pIC50) of 3.94.

With `COc1cc(OC)c(OC)cc1CNc1ccc2nc(N)nc(N)c2c1`, the pIC50 was 5.27.

As to `COc1ccc(CNc2ccc3nc(N)nc(N)c3c2)c(OC)c1`, the pIC50 was 5.36.

With `COc1cc(CNc2ccc3nc(N)nc(N)c3c2)cc(OC)c1OC`, the pIC50 was 5.17.

For `COc1cc(CN(C)c2ccc3nc(N)nc(N)c3c2)cc(OC)c1`, the pIC50 is 7.62.

`COc1ccc(OC)c(CN(C)c2ccc3nc(N)nc(N)c3c2)c1` had a pIC50 of 7.06.

`COc1ccc(CN(C)c2ccc3nc(N)nc(N)c3c2)c(OC)c1` gave a pIC50 of 7.00.

Turning to `COc1cc(CNc2ccc3nc(N)nc(N)c3c2)cc(OC)c1`, the negative-log IC50 (pIC50) is 5.66.

Turning to `CN(Cc1cccc2c1CCCC2)c1ccc2nc(N)nc(N)c2c1`, the pIC50 was 7.77.

As for `COc1ccc(CNc2ccc3nc(N)nc(N)c3c2)c(OC)c1OC`, the pIC50 is 5.31.

The target of a further data set is T1, Dihydrofolate reductase.
Settings: not given
Regarding `COc1ccc(CN(C)c2ccc3nc(N)nc(N)c3c2)c(OC)c1OC`, the pIC50 is 7.23.

Consider `Nc1nc(N)c2cc(NCc3ccccc3)ccc2n1`, for which the pIC50 was 5.57.

Consider `COc1ccc(OC)c(CNc2ccc3nc(N)nc(N)c3c2)c1`, for which the negative-log IC50 (pIC50) was 5.52.

`COc1cc(OC)c(CNc2ccc3nc(N)nc(N)c3c2)c(OC)c1` gave a pIC50 of 4.43.

Take `COc1cc(OC)c(OC)cc1CNc1ccc2nc(N)nc(N)c2c1`: the pIC50 was 5.80.

`COc1ccc(CNc2ccc3nc(N)nc(N)c3c2)c(OC)c1` had a pIC50 of 5.68.

`COc1cc(CNc2ccc3nc(N)nc(N)c3c2)cc(OC)c1OC`: the pIC50 is 5.55.

Regarding `COc1ccc(CN(C)c2ccc3nc(N)nc(N)c3c2)c(OC)c1`, the negative-log IC50 (pIC50) is 6.92.

Consider `COc1cc(CNc2ccc3nc(N)nc(N)c3c2)cc(OC)c1`, for which the pIC50 is 5.64.

In turn, `CN(Cc1cccc2c1CCCC2)c1ccc2nc(N)nc(N)c2c1` had a negative logarithm of the IC50 (pIC50) of 7.68.

Compound `COc1ccc(CNc2ccc3nc(N)nc(N)c3c2)c(OC)c1OC` gave a pIC50 of 5.70.

`COc1cc(NCc2ccc3nc(N)nc(N)c3c2C)cc(OC)c1OC` [TRIMETREXATE] gave a negative-log IC50 (pIC50) of 6.59.

The target in a further data set is T2, Bifunctional dihydrofolate reductase-thymidylate synthase.
Settings: not given
For `COc1ccc(CN(C)c2ccc3nc(N)nc(N)c3c2)c(OC)c1OC`, the negative logarithm of the IC50 (pIC50) was 7.77.

Consider `Nc1nc(N)c2cc(NCc3ccccc3)ccc2n1`, for which the pIC50 is 6.49.

Take `COc1ccc(OC)c(CNc2ccc3nc(N)nc(N)c3c2)c1`: the negative logarithm of the IC50 (pIC50) was 6.80.

As to `COc1cc(OC)c(OC)cc1CNc1ccc2nc(N)nc(N)c2c1`, the pIC50 was 6.91.

The compound `COc1ccc(CNc2ccc3nc(N)nc(N)c3c2)c(OC)c1` had a pIC50 of 6.77.

`COc1cc(CNc2ccc3nc(N)nc(N)c3c2)cc(OC)c1OC` gave a pIC50 of 7.08.

`COc1cc(CN(C)c2ccc3nc(N)nc(N)c3c2)cc(OC)c1` showed a pIC50 of 8.03.

On to `COc1ccc(OC)c(CN(C)c2ccc3nc(N)nc(N)c3c2)c1`, for which the pIC50 is 7.52.

In turn, `COc1ccc(CN(C)c2ccc3nc(N)nc(N)c3c2)c(OC)c1` gave a pIC50 of 7.41.

`COc1cc(CNc2ccc3nc(N)nc(N)c3c2)cc(OC)c1` gave a negative logarithm of the IC50 (pIC50) of 6.92.

For `COc1cc(CNc2cnc3nc(N)nc(N)c3c2)cc(OC)c1OC`, the pIC50 is 6.40.

`COc1ccc(CNc2ccc3nc(N)nc(N)c3c2)c(OC)c1OC`: the pIC50 was 6.72.

The target in the next data set is T5, Dihydrofolate reductase (Homo sapiens, UniProt P00374).
T5 sequence (P00374 whole entry): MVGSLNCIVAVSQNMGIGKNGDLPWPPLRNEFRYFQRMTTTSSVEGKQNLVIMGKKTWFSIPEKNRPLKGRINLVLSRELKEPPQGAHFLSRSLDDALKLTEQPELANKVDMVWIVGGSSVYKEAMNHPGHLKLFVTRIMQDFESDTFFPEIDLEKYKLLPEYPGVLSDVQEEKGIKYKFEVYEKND
Settings: not given
`COc1ccc(CN(C)c2ccc3nc(N)nc(N)c3c2)c(OC)c1OC`: the negative-log IC50 (pIC50) is 6.85.

In the case of `Nc1nc(N)c2cc(NCc3ccccc3)ccc2n1`, the negative-log IC50 (pIC50) was 5.62.

In turn, `COc1ccc(OC)c(CNc2ccc3nc(N)nc(N)c3c2)c1` showed a negative logarithm of the IC50 (pIC50) of 4.55.

For `COc1cc(OC)c(CNc2ccc3nc(N)nc(N)c3c2)c(OC)c1`, the pIC50 is 4.60.

In the case of `COc1cc(CNc2ccc3nc(N)nc(N)c3c2)cc(OC)c1OC`, the pIC50 was 4.64.

Regarding `COc1cc(CN(C)c2ccc3nc(N)nc(N)c3c2)cc(OC)c1`, the pIC50 is 7.96.

`COc1ccc(CN(C)c2ccc3nc(N)nc(N)c3c2)c(OC)c1` showed a pIC50 of 7.30.

In the case of `COc1cc(CNc2ccc3nc(N)nc(N)c3c2)cc(OC)c1`, the pIC50 is 4.55.

Take `CN(Cc1cccc2c1CCCC2)c1ccc2nc(N)nc(N)c2c1`: the pIC50 is 7.57.

`COc1ccc(CNc2ccc3nc(N)nc(N)c3c2)c(OC)c1OC` showed a negative-log IC50 (pIC50) of 4.57.

Values taken from ChEMBL document CHEMBL1131583, “Structure-based design and synthesis of lipophilic 2,4-diamino-6-substituted quinazolines and their evaluation as inhibitors of dihydrofolate reductases and potential antitumor agents” (J Med Chem, 1998).
